By EC50 is commonly meant the concentration that produces a half-maximal response.

The structures appear in SMILES notation.

The results in this text go back to patent US11179383B2 (Gilead Sciences, Inc., priority 2018, dated 2021).

This assay has as its target T1, α4β7 integrin (Homo sapiens, UniProt P13612+P26010).
T1 construct: monitoring the capture of α4β7 integrin expressing cells on a recombinant MadCAM-1 extracellular domain-coated plate; endogenous in cells; host or cells: RPMI8866 cells
T1 sequence (P13612 34-1032): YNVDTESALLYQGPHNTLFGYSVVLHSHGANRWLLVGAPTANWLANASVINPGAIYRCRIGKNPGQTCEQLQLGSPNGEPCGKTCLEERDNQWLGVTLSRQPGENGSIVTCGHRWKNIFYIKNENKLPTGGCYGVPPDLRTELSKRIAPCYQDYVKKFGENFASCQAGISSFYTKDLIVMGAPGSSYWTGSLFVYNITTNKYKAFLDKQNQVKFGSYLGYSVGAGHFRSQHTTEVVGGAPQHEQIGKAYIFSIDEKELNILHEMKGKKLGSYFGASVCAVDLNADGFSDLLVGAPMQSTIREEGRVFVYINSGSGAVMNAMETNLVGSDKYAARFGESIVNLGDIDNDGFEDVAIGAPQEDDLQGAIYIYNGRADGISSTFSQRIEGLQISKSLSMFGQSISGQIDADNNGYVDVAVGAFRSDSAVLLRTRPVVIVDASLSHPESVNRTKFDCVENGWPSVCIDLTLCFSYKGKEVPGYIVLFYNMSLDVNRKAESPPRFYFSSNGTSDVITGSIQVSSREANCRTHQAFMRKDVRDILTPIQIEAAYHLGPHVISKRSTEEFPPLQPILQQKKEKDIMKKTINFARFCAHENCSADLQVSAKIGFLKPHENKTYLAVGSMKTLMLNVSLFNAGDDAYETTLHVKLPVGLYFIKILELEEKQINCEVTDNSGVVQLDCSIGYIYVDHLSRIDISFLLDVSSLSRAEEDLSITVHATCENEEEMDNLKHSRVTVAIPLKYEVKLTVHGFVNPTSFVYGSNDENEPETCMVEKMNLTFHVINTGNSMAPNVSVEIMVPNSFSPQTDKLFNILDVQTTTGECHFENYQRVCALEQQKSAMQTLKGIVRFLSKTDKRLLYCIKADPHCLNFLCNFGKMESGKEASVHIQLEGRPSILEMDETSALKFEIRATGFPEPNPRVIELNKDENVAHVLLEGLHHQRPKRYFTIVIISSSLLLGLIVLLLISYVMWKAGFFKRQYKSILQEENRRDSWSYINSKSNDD
T1 sequence (P26010 20-798): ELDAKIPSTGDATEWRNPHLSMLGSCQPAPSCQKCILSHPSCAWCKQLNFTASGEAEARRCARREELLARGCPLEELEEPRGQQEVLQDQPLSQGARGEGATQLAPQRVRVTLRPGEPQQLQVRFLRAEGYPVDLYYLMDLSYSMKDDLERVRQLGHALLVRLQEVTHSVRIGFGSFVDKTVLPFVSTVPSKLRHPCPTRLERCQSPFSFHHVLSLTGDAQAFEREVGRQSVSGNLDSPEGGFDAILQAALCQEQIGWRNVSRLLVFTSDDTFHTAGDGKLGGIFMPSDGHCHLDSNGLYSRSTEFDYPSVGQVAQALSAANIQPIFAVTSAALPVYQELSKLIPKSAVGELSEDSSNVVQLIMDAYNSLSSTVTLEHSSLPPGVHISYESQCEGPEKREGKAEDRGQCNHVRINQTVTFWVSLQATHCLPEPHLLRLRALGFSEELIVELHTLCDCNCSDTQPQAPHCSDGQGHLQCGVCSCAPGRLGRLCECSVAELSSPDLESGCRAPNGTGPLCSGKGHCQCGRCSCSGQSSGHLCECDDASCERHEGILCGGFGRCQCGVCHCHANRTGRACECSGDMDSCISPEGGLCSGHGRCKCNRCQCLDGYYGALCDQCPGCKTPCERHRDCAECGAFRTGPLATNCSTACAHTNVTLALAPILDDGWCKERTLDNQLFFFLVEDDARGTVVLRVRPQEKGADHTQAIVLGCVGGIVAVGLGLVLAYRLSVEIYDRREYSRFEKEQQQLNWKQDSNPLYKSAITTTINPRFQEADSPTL
Briefly: α4β7 Integrin Cell Capture Assay. As to conditions: capture of α4β7 integrin expressing RPMI8866 cells on recombinant MadCAM-1 extracellular domain-coated plate; DMEM+0.5% FBS+0.5 mM MnCl2; read-out: EC50 α4β7. In kind it is cell-based. The procedure:
α4β7 Integrin Cell Capture Assay
The potency of inhibitors in preventing α4β7 integrin interaction with MadCAM-1 was measured by monitoring the capture of α4β7 integrin expressing cells on a recombinant MadCAM-1 extracellular domain-coated plate.
384-Well plates (Corning 3702) were coated with MadCAM-1 extracellular domain by dispensing 20 μL of MAdCAM-1 at 1.0 μg/mL per well and incubating overnight at 4° C. The plates were then washed with PBS and blocked with 3% BSA for 2 hours before being washed again.
RPMI8866 cells were spun down and re-suspended in assay medium (DMEM+0.5% FBS+0.5 mM MnCl2) at a density of 0.5×10^6 cells/mL. The cells were then dispensed (60 μL/well) to a 384-well plate (Greiner 781280) that was previously spotted with 60 nL of test compound per well. The plates were incubated at 37° C. for 1 hour. 50 μL of cells were transferred to the blocked, MadCAM-1-coated plates and incubated for 30 minutes at 37° C. 10 μL of 12% glutaraldehyde containing Hoechst 33342 (0.06 mg/mL) was added to the cells (2% glutaraldehyde and 0.01 mg/mL final concentrations). The plates were incubated for 90 minutes at room temperature. The plates were then washed 3 times with 70 μL of PBS per well and imaged on a Cellomics ArrayScan instrument. The cells that were bound to the plate were counted and plotted against the compound concentration to determine the EC50 of the test compounds.

With `Cc1c(-c2ccc(C[C@H](NC(=O)c3c(F)cc(N4CCOC[C@@H]4C(F)(F)F)cc3F)C(=O)O)c3ncccc23)c(=O)n(C)c2ccc(F)cc12` (single isomer, unassigned) [Example 87], the EC50 turned out to be 2.9 nM.
In the case of `Cc1c(-c2ccc(C[C@H](NC(=O)c3c(F)cc(N4CCOC[C@@H]4C(F)(F)F)cc3F)C(=O)O)c3ncccc23)c(=O)n(C)c2ccc(F)cc12` (single isomer, unassigned) [Example 88] it was 0.1 nM; in that of `COc1cc(F)c(F)cc1-c1ccc(C[C@H](NC(=O)c2c(Cl)cccc2Cl)C(=O)O)c2nccc(Cl)c12` (single isomer, unassigned) [Example 95], 15.2 nM.
With `COc1cc(F)c(F)cc1-c1ccc(C[C@H](NC(=O)c2c(Cl)cccc2Cl)C(=O)O)c2nccc(Cl)c12` (single isomer, unassigned) [Example 96], the EC50 was determined as 572 nM.
For `COc1cc(F)c(F)cc1-c1ccc(C[C@H](NC(=O)c2c(Cl)cccc2Cl)C(=O)O)c2nccc(C)c12` (single isomer, unassigned) [Example 98], the EC50 stood at 469 nM.
As for `COc1cc(F)c(F)cc1-c1ccc(C[C@H](NC(=O)c2c(Cl)cccc2Cl)C(=O)O)c2nccc(C)c12` (single isomer, unassigned) [Example 99], the figure is 50.4 nM; as for `Cc1c(-c2ccc(C[C@H](NC(=O)c3c(Cl)cccc3Cl)C(=O)O)c3ccccc23)c(=O)n(C)c(=O)n1C` (single isomer, unassigned) [Example 109], 2.1 nM.
As for `Cc1c(-c2ccc(C[C@H](NC(=O)c3c(Cl)cccc3Cl)C(=O)O)c3ccccc23)c(=O)n(C)c(=O)n1C` (single isomer, unassigned) [Example 110], the figure is 14.2 nM; as for `Cc1c(-c2ccc(C[C@H](NC(=O)c3c(Cl)cccc3Cl)C(=O)O)c3ccccc23)c(=O)n(C)c2ccccc12` (single isomer, unassigned) [Example 117], 82 nM.
Consider `Cc1c(-c2ccc(C[C@H](NC(=O)c3c(Cl)cccc3Cl)C(=O)O)c3ccccc23)c(=O)n(C)c2ccccc12` (single isomer, unassigned) [Example 118], for which the EC50 came out at 2.5 nM.
In the case of `Cc1c(-c2ccc(C[C@H](NC(=O)c3c(F)cccc3F)C(=O)O)c3ccccc23)c(=O)n(C)c2ccccc12` (single isomer, unassigned) [Example 119], the EC50 was determined as 82.9 nM.
Take `Cc1c(-c2ccc(C[C@H](NC(=O)c3c(F)cccc3F)C(=O)O)c3ccccc23)c(=O)n(C)c2ccccc12` (single isomer, unassigned) [Example 120]: the EC50 came to 1.5 nM.
With `COc1cc(C)n(C)c(=O)c1-c1ccc(C[C@H](NC(=O)c2c(F)cc(N3CCOC[C@@H]3C(F)(F)F)cc2F)C(=O)O)c2ccccc12` (single isomer, unassigned) [Example 124], the EC50 was 0.2 nM.
For `COc1cc(C)n(C)c(=O)c1-c1ccc(C[C@H](NC(=O)c2c(F)cc(N3CCOC[C@@H]3C(F)(F)F)cc2F)C(=O)O)c2ccccc12` (single isomer, unassigned) [Example 125], the EC50 came to 0.5 nM.
In the case of `Cc1cc(C)n(C)c(=O)c1-c1ccc(C[C@H](NC(=O)c2c(F)cc(N3CCOC[C@@H]3C(F)(F)F)cc2F)C(=O)O)c2ccccc12` (single isomer, unassigned) [Example 126] it was 6.4 nM; in that of `Cc1cc(C)n(C)c(=O)c1-c1ccc(C[C@H](NC(=O)c2c(F)cc(N3CCOC[C@@H]3C(F)(F)F)cc2F)C(=O)O)c2ccccc12` (single isomer, unassigned) [Example 127], 0.4 nM; in that of `Cc1cc(C(F)(F)F)c(-c2ccc(C[C@H](NC(=O)c3c(F)cc(N4CCOC[C@@H]4C(F)(F)F)cc3F)C(=O)O)c3ccccc23)c(=O)n1C` (single isomer, unassigned) [Example 128], 1.7 nM.
In the case of `Cc1cc(C(F)(F)F)c(-c2ccc(C[C@H](NC(=O)c3c(F)cc(N4CCOC[C@@H]4C(F)(F)F)cc3F)C(=O)O)c3ccccc23)c(=O)n1C` (single isomer, unassigned) [Example 129] it was 0.1 nM.
`CC[C@@H](Nc1cc(F)c(C(=O)N[C@@H](Cc2ccc(-c3c(OC)cc(C)n(C)c3=O)c3ccccc23)C(=O)O)c(F)c1)C(F)(F)F` (single isomer, unassigned) [Example 130]: the EC50 was 0.6 nM.
As for `CC[C@@H](Nc1cc(F)c(C(=O)N[C@@H](Cc2ccc(-c3c(OC)cc(C)n(C)c3=O)c3ccccc23)C(=O)O)c(F)c1)C(F)(F)F` (single isomer, unassigned) [Example 131], the figure is 0.5 nM.
For `CC[C@@H](Nc1cc(F)c(C(=O)N[C@@H](Cc2ccc(-c3c(C)cc(C)n(C)c3=O)c3ccccc23)C(=O)O)c(F)c1)C(F)(F)F` (single isomer, unassigned) [Example 132], the 50% effective concentration (EC50) is 13.7 nM.
Consider `CC[C@@H](Nc1cc(F)c(C(=O)N[C@@H](Cc2ccc(-c3c(C)cc(C)n(C)c3=O)c3ccccc23)C(=O)O)c(F)c1)C(F)(F)F` (single isomer, unassigned) [Example 133], for which the 50% effective concentration (EC50) came to 0.5 nM.
Consider `CC[C@@H](Nc1cc(F)c(C(=O)N[C@@H](Cc2ccc(-c3c(C(F)(F)F)cc(C)n(C)c3=O)c3ccccc23)C(=O)O)c(F)c1)C(F)(F)F` (single isomer, unassigned) [Example 134], for which the EC50 turned out to be 8.3 nM.
Regarding `CC[C@@H](Nc1cc(F)c(C(=O)N[C@@H](Cc2ccc(-c3c(C(F)(F)F)cc(C)n(C)c3=O)c3ccccc23)C(=O)O)c(F)c1)C(F)(F)F` (single isomer, unassigned) [Example 135], the EC50 stood at 1 nM.
Turning to `CC[C@@H](Nc1cc(F)c(C(=O)N[C@@H](Cc2ccc(-c3c(OC)cnn(C)c3=O)c3ccccc23)C(=O)O)c(F)c1)C(F)(F)F` (single isomer, unassigned) [Example 136], the EC50 is 0.8 nM.
In the case of `CC[C@@H](Nc1cc(F)c(C(=O)N[C@@H](Cc2ccc(-c3c(OC)cnn(C)c3=O)c3ccccc23)C(=O)O)c(F)c1)C(F)(F)F` (single isomer, unassigned) [Example 137] it was 0.9 nM; in that of `CCOCc1cc(OC)c(-c2ccc(C[C@@H](NC(=O)c3c(F)cc(NS(=O)(=O)c4ccc(-c5ccnc(F)c5)cc4)cc3F)C(=O)O)c3c2cnn3C)c(OC)c1` (single isomer, unassigned) [Example 145], 34.9 nM.
